Results: ChEMBL document CHEMBL1177647, “Synthesis and characterization of novel phenylindoles as potential probes for imaging of β-amyloid plaques in the brain” (Bioorg Med Chem, 2010)

How the values were obtained:
[1] = tested on: Brain; experiment: In vivo binding affinity to amyloid beta 42 in mouse brain by neuropathological staining; format: ADME, organism-based
[2] = Displacement of [125I]IMPY from amyloid beta42 by gamma counting
[3] = tested on: Brain; experiment: In vivo binding affinity to amyloid beta 42 in Tg2576 mouse brain by neuropathological staining; format: ADME, organism-based

Structure (SMILES) | Activity [1] | Ki [2] | Activity [3]
CN(C)c1ccc(-c2cc3cc(I)ccc3[nH]2)cc1 | Not Active | 0.00424 µM | 
COc1ccc(-c2cc3cc(I)ccc3[nH]2)cc1 |  | 0.0202 µM | Active
Oc1ccc(-c2cc3cc(I)ccc3[nH]2)cc1 |  | 0.0329 µM | 
OCCOc1ccc(-c2cc3cc(I)ccc3[nH]2)cc1 |  | 0.0259 µM | 
CN(C)c1ccc(-n2ccc3cc(I)ccc32)cc1 |  | > 10 µM | 
